Structures are written as SMILES.

The target of test [1] is T1, c-Kit kinase (SEQ ID NO:9) (Homo sapiens, UniProt P10721).
T1 construct: purchased ProQinase
Description: c-Kit kinase assay (pyruvate kinase/lactate dehydrogenase coupled). Particulars: <2 min preincubation at 22° C., ATP 200 μM; read-out: c-Kit Enzyme Assay, biochemical IC50. The method, then: C-Kit Kinase (SEQ ID NO:9) Assay
Activity of c-Kit kinase (SEQ ID NO:9) was determined by following the production of ADP from the kinase reaction through coupling with the pyruvate kinase/lactate dehydrogenase system (e.g., Schindler, et al. Science (2000) 289, 1938-1942). In this assay, the oxidation of NADH (thus the decrease at A340 nm) was continuously monitored spectrophometrically. The reaction mixture ([…]) contained c-Kit (cKIT residues T544-V976, from ProQinase, 5.4 nM), polyE4Y (1 mg/ml), MgCl2 (10 mM), pyruvate kinase (4 units), lactate dehydrogenase (0.7 units), phosphoenol pyruvate (1 mM), and NADH (0.28 mM) in 90 mM Tris buffer containing 0.2% octyl-glucoside and 1% DMSO, pH 7.5. Test compounds were incubated with […] (SEQ ID NO:9) and other reaction reagents at 22° C. for <2 min before ATP (200 μM) was added to start the reaction. The absorption at 340 nm was monitored continuously for 0.5 hours at 30° C. on Polarstar Optima plate reader (BMG). The reaction rate was calculated using the 0 to 0.5 h time frame. Percent inhibition was obtained by comparison of reaction rate with that of a control (i.e. with no test compound). IC50 values were calculated from a series of percent inhibition values determined at a range of inhibitor concentrations using software routines as implemented in the GraphPad Prism software package.

Test [2] addresses T2, C-Met kinase (SEQ ID NO:10) (Homo sapiens, UniProt P08581).
T2 construct: purchased Invitrogen PV3143
Nature of the test: C-Met kinase assay (pyruvate kinase/lactate dehydrogenase coupled). Particulars: 0.5 h preincubation at 22° C., ATP 100 μM; read-out: c-Met Enzyme Assay, biochemical IC50. As to the method:
C-Met Kinase (SEQ ID NO:10) Assay
Activity of C-Met kinase (SEQ ID NO:10) was determined by following the production of ADP from the kinase reaction through coupling with the pyruvate kinase/lactate dehydrogenase system (e.g., Schindler, et al. Science (2000) 289, 1938-1942). In this assay, the oxidation of NADH (thus the decrease at A340 nm) was continuously monitored spectrophometrically. The reaction mixture (100 μl) contained C-Met (c-Met residues; 956-1390, from Invitrogen, catalogue #PV3143, 6 nM), polyE4Y (1 mg/ml), MgCl2 (10 mM), pyruvate kinase (4 units), lactate dehydrogenase (0.7 units), phosphoenol pyruvate (1 mM), and NADH (0.28 mM) in 90 mM Tris buffer containing 0.25 mM DTT, 0.2% octyl-glucoside and 1% DMSO, pH 7.5. Test compounds were incubated with C-Met (SEQ ID NO:10) and other reaction reagents at 22° C. for 0.5 h before ATP (100 μM) was added to start the reaction. The absorption at 340 n=was monitored continuously for 2 hours at 30° C. on Polarstar Optima plate reader (BMG). The reaction rate was calculated using the 1.0 to 2.0 h time frame. Percent inhibition was obtained by comparison of reaction rate with that of a control (i.e. with no test compound). IC50 values were calculated from a series of percent inhibition values determined at a range of inhibitor concentrations using software routines as implemented in the GraphPad Prism software package.

For test [3], the target named is B-Raf(V600E) kinase (SEQ ID NO:11) (Homo sapiens, UniProt P15056, V600E). Nature of the test: B-Raf(V600E) kinase assay (pyruvate kinase/lactate dehydrogenase coupled, MEK1 substrate). Particulars: 1 h preincubation at 30° C., ATP 0.2 mM; read-out: B-Raf V600E Enzyme Assay, biochemical IC50. The method, then: B-Raf(V600E) Kinase Assay
The activity of B-Raf(V600E) kinase (SEQ ID NO:11) was determined by following the formation of ADP from the reaction through coupling with the pyruvate kinase/lactate dehydrogenase system (e.g., Schindler, et al. Science (2000) 289, 1938-1942). In this assay, the oxidation of NADH (thus the decrease at A340nm) was continuously monitored spectrophotometrically. The reaction mixture (100 μl) contained B-Raf(V600E) kinase (0.34 nM nominal concentration, SEQ ID NO:11), unphosphorylated, full-length MEK1 (42 nM, SEQ ID NO:12), MgCl2 (13 mM), pyruvate kinase (3.5 units), lactate dehydrogenase (5.5 units), phosphoenolpyruvate (1 mM), and NADH (0.28 mM), in 60 mM Tris buffer, containing 0.13% octyl-glucoside and 3.5% DMSO concentration at pH 7.5. The test compounds were incubated with the reaction mixture at 30° C. for 1 h. The reaction was initiated by adding ATP (0.2 mM, final concentration). The absorption at 340 nm was continuously monitored for 3 h at 30° C. on a Polarstar Optima plate reader (BMG). The reaction rate was calculated using the 0.5 h to 1.5 h time frame. Percent inhibition was obtained by comparison of reaction rate with that of a control (i.e. with no test compound). IC50 values were calculated from a series of percent inhibition values determined at a range of inhibitor concentrations using software routines as implemented in the GraphPad Prism software package.

The target of test [4] is T3, BaF3 cells transfected with wild type p210 BCR-Abl (Homo sapiens, UniProt P00519).
T3 construct: fused on or other part: P11274 (Breakpoint cluster region protein)
Nature of the test: Ba/F3 p210 whole cell proliferation assay (Cell Titer Blue, 72 hours). The note with it: 72 hours incubation; read-out: Ba/F3 p210 whole cell proliferation assay, antiproliferation IC50. Type of test: cell-based. The method, then: BaF3 cells (parental or transfected with the following: wild type p210 BCR-Abl and T315I p210 BCR-Abl was obtained from Professor Richard Van Etten (New England Medical Center, Boston, Mass.). Briefly, cells were grown in RPMI 1640 supplemented with 10% characterized fetal bovine serum (HyClone, Logan, Utah) at 37 degrees Celsius, 5% CO2, 95% humidity. Cells were allowed to expand until reaching 80% saturation at which point they were subcultured or harvested for assay use.
A serial dilution of test compound was dispensed into a 96 well black clear bottom plate (Corning, Corning, N.Y.). For each cell line, three thousand cells were added per well in complete growth medium. Plates were incubated for 72 hours at 37 degrees Celsius, 5% CO2, 95% humidity. At the end of the incubation period Cell Titer Blue (Promega, Madison, Wis.) was added to each well and an additional 4.5 hour incubation at 37 degrees Celsius, 5% CO2, 95% humidity was performed. Plates were then read on a BMG Fluostar Optima (BMG, Durham, N.C.) using an excitation of 544 nm and an emission of 612 nm. Data was analyzed using Prism software (Graphpad, San Diego, Calif.) to calculate IC50's.

T1 sequence (P10721 with tags, fused parts or gaps): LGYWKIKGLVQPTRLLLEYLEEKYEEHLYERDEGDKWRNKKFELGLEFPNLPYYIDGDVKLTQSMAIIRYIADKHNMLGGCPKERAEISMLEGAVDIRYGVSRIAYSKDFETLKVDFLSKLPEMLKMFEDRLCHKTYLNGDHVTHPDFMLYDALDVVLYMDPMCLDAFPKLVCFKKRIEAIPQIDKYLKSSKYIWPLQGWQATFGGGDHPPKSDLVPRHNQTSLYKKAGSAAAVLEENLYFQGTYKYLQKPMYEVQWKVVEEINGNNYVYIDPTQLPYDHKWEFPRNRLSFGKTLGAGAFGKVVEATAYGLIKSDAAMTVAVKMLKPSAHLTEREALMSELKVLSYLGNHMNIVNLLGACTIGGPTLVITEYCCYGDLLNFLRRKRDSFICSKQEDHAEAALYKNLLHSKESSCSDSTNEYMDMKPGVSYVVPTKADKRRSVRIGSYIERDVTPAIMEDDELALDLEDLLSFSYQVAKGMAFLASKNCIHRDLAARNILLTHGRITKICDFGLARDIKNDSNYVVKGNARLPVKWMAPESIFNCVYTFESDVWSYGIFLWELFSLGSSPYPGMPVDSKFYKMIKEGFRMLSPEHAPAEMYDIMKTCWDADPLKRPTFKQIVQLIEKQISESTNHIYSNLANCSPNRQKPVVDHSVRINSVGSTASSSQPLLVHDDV
T3 sequence (P00519 whole entry, change not shown, the tested form may be a part): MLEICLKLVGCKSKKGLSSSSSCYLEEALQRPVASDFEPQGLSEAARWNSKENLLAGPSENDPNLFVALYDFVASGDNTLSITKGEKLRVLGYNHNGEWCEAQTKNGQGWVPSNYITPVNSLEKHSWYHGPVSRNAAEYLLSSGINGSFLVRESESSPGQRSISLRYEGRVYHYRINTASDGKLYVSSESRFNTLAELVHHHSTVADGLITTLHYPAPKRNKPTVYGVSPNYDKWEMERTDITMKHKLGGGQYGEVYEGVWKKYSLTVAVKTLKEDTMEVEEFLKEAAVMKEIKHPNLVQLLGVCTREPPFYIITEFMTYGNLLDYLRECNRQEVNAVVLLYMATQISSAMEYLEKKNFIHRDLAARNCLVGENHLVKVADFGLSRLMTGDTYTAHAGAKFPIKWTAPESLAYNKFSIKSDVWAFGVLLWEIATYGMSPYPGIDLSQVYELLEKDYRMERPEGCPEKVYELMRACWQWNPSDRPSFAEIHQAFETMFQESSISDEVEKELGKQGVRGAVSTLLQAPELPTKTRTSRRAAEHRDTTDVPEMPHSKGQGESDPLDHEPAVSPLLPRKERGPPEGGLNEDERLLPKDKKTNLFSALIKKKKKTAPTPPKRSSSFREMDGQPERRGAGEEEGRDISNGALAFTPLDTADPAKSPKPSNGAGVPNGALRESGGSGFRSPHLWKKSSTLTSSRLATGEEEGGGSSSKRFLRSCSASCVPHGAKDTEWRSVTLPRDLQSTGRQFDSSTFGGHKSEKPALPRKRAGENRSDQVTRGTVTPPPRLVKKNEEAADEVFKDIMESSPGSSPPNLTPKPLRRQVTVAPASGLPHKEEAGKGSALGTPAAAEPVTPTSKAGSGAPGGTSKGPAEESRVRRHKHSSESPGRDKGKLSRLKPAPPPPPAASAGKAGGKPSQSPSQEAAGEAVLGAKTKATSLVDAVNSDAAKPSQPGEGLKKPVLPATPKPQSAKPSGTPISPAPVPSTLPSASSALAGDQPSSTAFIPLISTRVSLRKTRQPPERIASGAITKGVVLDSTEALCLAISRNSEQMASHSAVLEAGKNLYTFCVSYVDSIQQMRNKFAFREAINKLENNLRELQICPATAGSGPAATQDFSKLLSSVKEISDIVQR
T2 sequence (P08581 with tags, fused parts or gaps): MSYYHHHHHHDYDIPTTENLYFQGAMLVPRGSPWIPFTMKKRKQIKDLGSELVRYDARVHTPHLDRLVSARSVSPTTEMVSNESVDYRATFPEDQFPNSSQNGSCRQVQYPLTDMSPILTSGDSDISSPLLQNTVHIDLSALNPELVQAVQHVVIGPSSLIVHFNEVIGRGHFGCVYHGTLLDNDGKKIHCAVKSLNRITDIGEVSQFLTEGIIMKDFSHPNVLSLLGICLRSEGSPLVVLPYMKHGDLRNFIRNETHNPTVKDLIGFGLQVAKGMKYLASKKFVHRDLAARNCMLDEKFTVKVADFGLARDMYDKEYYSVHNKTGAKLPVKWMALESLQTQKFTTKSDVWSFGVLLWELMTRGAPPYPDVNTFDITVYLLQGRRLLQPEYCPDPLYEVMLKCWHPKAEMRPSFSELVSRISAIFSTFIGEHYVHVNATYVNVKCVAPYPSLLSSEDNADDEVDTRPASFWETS
Chain of B-Raf(V600E) kinase (SEQ ID NO:11) (P15056 with tags, fused parts or gaps V600E): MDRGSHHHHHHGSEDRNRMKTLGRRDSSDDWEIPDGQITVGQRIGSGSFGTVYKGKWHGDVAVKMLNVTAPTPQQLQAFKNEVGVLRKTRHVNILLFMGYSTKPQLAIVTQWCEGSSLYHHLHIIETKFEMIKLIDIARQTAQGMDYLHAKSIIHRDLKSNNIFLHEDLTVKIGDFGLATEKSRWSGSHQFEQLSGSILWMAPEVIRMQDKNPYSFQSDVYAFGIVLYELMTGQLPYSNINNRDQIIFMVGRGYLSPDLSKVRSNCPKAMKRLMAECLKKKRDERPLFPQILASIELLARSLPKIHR

Broadly, the IC50 is the concentration that gives 50% inhibition. For the compound `CCc1cc(NC(=O)Nc2ccc(Oc3ccnc(-c4cnn(C)c4)c3)cc2F)n(-c2cccc(C#N)c2)n1` [Example 9, 1-(1-(3-cyanophenyl)-3-ethyl-1H-pyrazol-5-yl)-3-(2-fluoro-4-(2-(1-methyl-1H-pyrazol-4-yl)pyridin-4-yloxy)phenyl)urea], the IC50 is below 100 nM in test [1], below 1000 nM in test [2] and below 1000 nM in test [3]. Further, in test [4], the GI50 was below 100 nM.
Regarding `Cc1c(Oc2ccnc(-c3cnn(C)c3)c2)ccc(NC(=O)Nc2cc(C(C)C)nn2-c2cccc(C#N)c2)c1F` [Example 12, 1-(1-(3-cyanophenyl)-3-isopropyl-1H-pyrazol-5-yl)-3-(2-fluoro-3-methyl-4-(2-(1-methyl-1H-pyrazol-4-yl)pyridin-4-yloxy)phenyl)urea], the IC50 in test [1], in test [2] and in test [3] was below 100 nM each time. In test [4], the GI50 was below 100 nM.
Take `CC(C)c1cc(NC(=O)Nc2ccc(Oc3ccnc(-c4cnn(C)c4)c3)c(F)c2F)n(-c2cccc(C#N)c2)n1` [Example 13, 1-(1-(3-cyanophenyl)-3-isopropyl-1H-pyrazol-5-yl)-3-(2,3-difluoro-4-(2-(1-methyl-1H-pyrazol-4-yl)pyridin-4-yloxy)phenyl)urea]: the IC50 in test [1], in test [2] and in test [3] was below 100 nM in each case. The GI50 in test [4] is below 100 nM.
As for `CCc1cc(NC(=O)Nc2ccc(Oc3ccnc(-c4cnn(C(C)C)c4)c3)cc2F)n(-c2cccc(C#N)c2)n1` [Example 17, 1-(1-(3-cyanophenyl)-3-ethyl-1H-pyrazol-5-yl)-3-(2-fluoro-4-(2-(1-isopropyl-1H-pyrazol-4-yl)pyridin-4-yloxy)phenyl)urea], the IC50 is below 100 nM in test [1], below 1000 nM in test [2] and below 10000 nM in test [3]. For the same compound, the GI50 in test [4] was below 100 nM.
Regarding `CCc1cc(NC(=O)Nc2ccc(Oc3ccnc(-c4cnn(C)c4)c3)cc2F)n(-c2ccc(CO)cc2)n1` [Example 19, 1-(3-ethyl-1-(4-(hydroxymethyl)phenyl)-1H-pyrazol-5-yl)-3-(2-fluoro-4-(2-(1-methyl-1H-pyrazol-4-yl)pyridin-4-yloxy)phenyl)urea], the IC50 in test [1] was below 100 nM; in test [2], below 1000 nM; in test [3], below 1000 nM. Further, the GI50 in test [4] was below 100 nM.
With `CC(C)n1cc(NC(=O)Nc2ccc(Oc3ccnc(-c4cnn(C)c4)c3)cc2F)c(-c2ccccc2)n1` [Example 21, 1-(2-fluoro-4-(2-(1-methyl-1H-pyrazol-4-yl)pyridin-4-yloxy)phenyl)-3-(1-isopropyl-3-phenyl-1H-pyrazol-4-yl)urea], the IC50 in test [1] was below 100 nM; in test [2], below 1000 nM; in test [3] it was below 1000 nM. The GI50 in test [4] is below 100 nM.

The values above are taken from patent publication US20080269267A1, “KINASE INHIBITORS USEFUL FOR THE TREATMENT OF MYLEOPROLIFIC DISEASES AND OTHER PROLIFERATIVE DISEASES” (Deciphera Pharmaceuticals, LLC, priority 2007, published 2008).
